Results reported in patent publication US10618918B2, “Substituted boronic acids as antimicrobials” (priority 2015, dated 2020).
Read-outs that look alike come from different tables or passages of the source.

What was measured:
KP1004 KPC-2 [1] = experiment: Biapenem potentiation (MPC@1), strain KP1004 KPC-2; assay type: cell-based; settings: minimum BLI concentration inhibiting growth with biapenem 1 μg/mL; tested up to 40 μg/mL
Method: (§1) Biapenem was present in the test medium at 1 μg/mL. […] Table 3 summarizes the BLI potency of biapenem potentiation (MPC@1) for two strains overexpressing class A (KPC) and class D (OXA-48) carbapenemases. Biapenem MIC for each strain is also shown.

KP1086 OXA-48 = experiment: Biapenem potentiation (MPC@1), strain KP1086 OXA-48; assay type: cell-based; settings: minimum BLI concentration inhibiting growth with biapenem 1 μg/mL; tested up to 40 μg/mL
Method: as §1

AB1053 OXA-72 = experiment: Meropenem potentiation (MPC@8), strain AB1053 OXA-72; assay type: cell-based, Acinetobacter baumannii; settings: for MPM MPC8 AB1053 OXA-72: minimum BLI concentration inhibiting growth with meropenem 8 μg/mL, tested up to 20 μg/mL
AB1054 OXA-23 = experiment: Meropenem potentiation (MPC@8), strain AB1054 OXA-23; assay type: cell-based, Acinetobacter baumannii; settings: for MPM MPC8 AB1054 OXA-23: minimum BLI concentration inhibiting growth with meropenem 8 μg/mL, tested up to 20 μg/mL
[2] = target: T1, purified class A, C and D enzymes (β-lactamases) (Acinetobacter baumannii, UniProt Q9L4P2); experiment: biochemical; assay type: biochemical; settings: purified OXA-23; nitrocefin (NCF) as reporter substrate
T1 construct: rows headed: Ki (OXA-23, NCF), uM; other: purified OXA-23; nitrocefin (NCF) as reporter substrate

[3] = target: purified class A, C and D enzymes (β-lactamases) (Enterobacter cloacae, UniProt P05364); experiment: biochemical; assay type: biochemical
[4] = target: purified class A, C and D enzymes (β-lactamases) (Klebsiella pneumoniae, UniProt Q6XEC0); experiment: biochemical; assay type: biochemical
[5] = target: purified class A, C and D enzymes (β-lactamases) (Klebsiella pneumoniae, UniProt Q9F663); experiment: biochemical; assay type: biochemical
[6] = target: T2, purified class A, C and D enzymes (β-lactamases) (Pseudomonas aeruginosa, UniProt P24735); experiment: biochemical; assay type: biochemical
T2 construct: rows headed: Ki (Pa-AmpC, NCF), uM; other: purified Pa-AmpC; nitrocefin (NCF) as reporter substrate

ECL1002 = experiment: Aztreonam potentiation (MPC@4), strain ECL1002; settings: minimum BLI concentration inhibiting growth with aztreonam 4 μg/mL; tested up to 40 μg/mL
ec308 SHV-5 = experiment: Aztreonam potentiation (MPC@4), strain ec308 SHV-5; settings: minimum BLI concentration inhibiting growth with aztreonam 4 μg/mL; tested up to 40 μg/mL
ec302 TEM-10 = experiment: Aztreonam potentiation (MPC@4), strain ec302 TEM-10; settings: minimum BLI concentration inhibiting growth with aztreonam 4 μg/mL; tested up to 40 μg/mL
KP1004 KPC-2 [7] = experiment: Aztreonam potentiation (MPC@4), strain KP1004 KPC-2; settings: minimum BLI concentration inhibiting growth with aztreonam 4 μg/mL; tested up to 40 μg/mL
EC1010 CMY-6 = experiment: Aztreonam potentiation (MPC@4), strain EC1010 CMY-6; settings: minimum BLI concentration inhibiting growth with aztreonam 4 μg/mL; tested up to 40 μg/mL
KP1010 SHV-12 = experiment: Aztreonam potentiation (MPC@4), strain KP1010 SHV-12; settings: minimum BLI concentration inhibiting growth with aztreonam 4 μg/mL; tested up to 40 μg/mL
KP1009 CTX-M-15 = experiment: Aztreonam potentiation (MPC@4), strain KP1009 CTX-M-15; settings: minimum BLI concentration inhibiting growth with aztreonam 4 μg/mL; tested up to 40 μg/mL
KP1005 CTX-M-14 = experiment: Tigemonam potentiation (MPC@4), strain KP1005 CTX-M-14; settings: minimum BLI concentration inhibiting growth with tigemonam 4 μg/mL; tested up to 40 μg/mL
[8] = purified P99, nitrocefin (NCF) as reporter substrate
[9] = purified OXA-48, nitrocefin (NCF) as reporter substrate
[10] = purified KPC-2, nitrocefin (NCF) as reporter substrate
[11] = purified Pa-AmpC, nitrocefin (NCF) as reporter substrate, read-out: Ki (Pa-AmpC, NCF)

Row | SMILES | BPM MPC1 KP1004 KPC-2 (KP1004 KPC-2 [1]) | BPM MPC1 OXA-48 KP1086 (KP1086 OXA-48) | MPM MPC8 AB1053 OXA-72 (AB1053 OXA-72) | MPM MPC8 AB1054 OXA-23 (AB1054 OXA-23) | Ki [2] [nM] | Ki (P99, NCF), uM [3, 8] | Ki (OXA-48, NCF), uM [4, 9] | Ki (KPC-2, NCF), uM [5, 10] | Ki [6, 11] [nM] | AZT MPC4 ECL1002 (ECL1002) | AZT MPC4 SHV-5 ec308 (ec308 SHV-5) | AZT MPC4 TEM-10 ec302 (ec302 TEM-10) | AZT MPC4 KPC-2 KP1004 (KP1004 KPC-2 [7]) | AZT MPC4 CMY-6 EC1010 (EC1010 CMY-6) | AZT MPC4 SHV-12 KP1010 (KP1010 SHV-12) | AZT MPC4 CTX-M-15 KP1009 (KP1009 CTX-M-15) | TIG MPC4 CTX-M-14 KP1005 (KP1005 CTX-M-14) | Ki (P99, NCF), uM [3] | Ki [6] [nM] | further results
1 | O=C(O)c1c(OCC2OCCO2)ccc2c1OB(O)CC2 [Compound 26, 7-(1,3-Dioxolan-2-ylmethoxy)-2-hydroxy-3,4-dihydro-1,2-benzoxaborinine-8-carboxylic acid] | X (X = MPC@1 ≤ 5 μg/mL) | X (X = MPC@1 ≤ 5 μg/mL) | X (X = MPC@1 ≤ 5 μg/mL) | Y (Y = 5 μg/mL < MPC@1 ≤ 20 μg/mL) | < 100 | X (X = Ki ≤ 0.1 μM) | X (X = Ki ≤ 0.1 μM) | X (X = Ki ≤ 0.1 μM) | < 100 | X (X = MPC@4 ≤ 5 μg/mL) | Y (Y = 5 μg/mL < MPC@4 ≤ 20 μg/mL) | Y (Y = 5 μg/mL < MPC@4 ≤ 20 μg/mL) | X (X = MPC@4 ≤ 5 μg/mL) | X (X = MPC@4 ≤ 5 μg/mL) | X (X = MPC@4 ≤ 5 μg/mL) | Y (Y = 5 μg/mL < MPC@4 ≤ 20 μg/mL) | Z (Z = MPC@4 > 20 μg/mL) | – | – | –
2 | C[C@@H](O)[C@H]1C(=O)N2C(C(=O)O)=C(S[C@@H]3CN[C@H](C(=O)N(C)C)C3)[C@H](C)[C@H]12 [Meropenem, reference compound] | – | – | – | – | – | – | – | – | – | – | – | – | – | – | – | – | – | – | – | MIC (AB1053 OXA-72; Acinetobacter baumannii, strain AB1053 OXA-72, meropenem alone): > 64 µg/mL; MIC (AB1054 OXA-23; Acinetobacter baumannii, strain AB1054 OXA-23, meropenem alone): 32 µg/mL
3 | O=C([O-])c1ccnc2c1O[B-](O)(O)CC2.[Na+].[Na+] [Compound 38, Disodium; 8,8-dihydroxy-7-oxa-2-aza-8-boranuidabicyclo[4.4.0]deca-1,3,5-triene-5-carboxylate] | X (X = MPC@1 ≤ 5 μg/mL) | Y (Y = 5 μg/mL < MPC@1 ≤ 20 μg/mL) | Z (Z = MPC@1 > 20 μg/mL) | Z (Z = MPC@1 > 20 μg/mL) | > 1000 | – | X (X = Ki ≤ 0.1 μM) | Y (Y = 0.1 μM < Ki ≤ 1 μM) | – | Z (Z = MPC@4 > 20 μg/mL) | Z (Z = MPC@4 > 20 μg/mL) | Z (Z = MPC@4 > 20 μg/mL) | Y (Y = 5 μg/mL < MPC@4 ≤ 20 μg/mL) | Y (Y = 5 μg/mL < MPC@4 ≤ 20 μg/mL) | Z (Z = MPC@4 > 20 μg/mL) | Z (Z = MPC@4 > 20 μg/mL) | Z (Z = MPC@4 > 20 μg/mL) | Z (key: X = Ki ≤ 0.1 μM; Y = 0.1 μM < Ki ≤ 1 μM; Z = Ki > 1 μM) | > 1000 | –
4 | O=C([O-])c1c(OCC#CCO)ccc2c1O[B-](O)(O)CC2.[Na+].[Na+] [Compound 30, Disodium; 4,4-dihydroxy-8-(4-hydroxybut-2-ynoxy)-5-oxa-4-boranuidabicyclo[4.4.0]deca-1(6),7,9-triene-7-carboxylate] | X (X = MPC@1 ≤ 5 μg/mL) | Y (Y = 5 μg/mL < MPC@1 ≤ 20 μg/mL) | X (X = MPC@1 ≤ 5 μg/mL) | X (X = MPC@1 ≤ 5 μg/mL) | < 100 | – | X (X = Ki ≤ 0.1 μM) | X (X = Ki ≤ 0.1 μM) | – | X (X = MPC@4 ≤ 5 μg/mL) | X (X = MPC@4 ≤ 5 μg/mL) | X (X = MPC@4 ≤ 5 μg/mL) | X (X = MPC@4 ≤ 5 μg/mL) | X (X = MPC@4 ≤ 5 μg/mL) | X (X = MPC@4 ≤ 5 μg/mL) | X (X = MPC@4 ≤ 5 μg/mL) | Y (Y = 5 μg/mL < MPC@4 ≤ 20 μg/mL) | X (key: X = Ki ≤ 0.1 μM; Y = 0.1 μM < Ki ≤ 1 μM; Z = Ki > 1 μM) | < 100 | –
5 | C[S+]([O-])c1ccc2c(c1C(=O)[O-])O[B-](O)(O)CC2.[Na+].[Na+] (stereo not shown) [Compound 40, Disodium; 4,4-dihydroxy-8-methylsulfinyl-5-oxa-4-boranuidabicyclo[4.4.0]deca-1(6),7,9-triene-7-carboxylate] | X (X = MPC@1 ≤ 5 μg/mL) | X (X = MPC@1 ≤ 5 μg/mL) | Z (Z = MPC@1 > 20 μg/mL) | Z (Z = MPC@1 > 20 μg/mL) | – | – | X (X = Ki ≤ 0.1 μM) | X (X = Ki ≤ 0.1 μM) | – | X (X = MPC@4 ≤ 5 μg/mL) | X (X = MPC@4 ≤ 5 μg/mL) | X (X = MPC@4 ≤ 5 μg/mL) | X (X = MPC@4 ≤ 5 μg/mL) | X (X = MPC@4 ≤ 5 μg/mL) | X (X = MPC@4 ≤ 5 μg/mL) | X (X = MPC@4 ≤ 5 μg/mL) | X (X = MPC@4 ≤ 5 μg/mL) | X (key: X = Ki ≤ 0.1 μM; Y = 0.1 μM < Ki ≤ 1 μM; Z = Ki > 1 μM) | < 100 | –
6 | O=C(O)c1c(OC(CO)CO)ccc2c1OB(O)CC2 [Compound 44, 2-hydroxy-7-[2-hydroxy-1-(hydroxymethyl)ethoxy]-3,4-dihydro-1,2-benzoxaborinine-8-carboxylic acid] | X (X = MPC@1 ≤ 5 μg/mL) | X (X = MPC@1 ≤ 5 μg/mL) | X (X = MPC@1 ≤ 5 μg/mL) | Y (Y = 5 μg/mL < MPC@1 ≤ 20 μg/mL) | < 100 | X (X = Ki ≤ 0.1 μM) | X (X = Ki ≤ 0.1 μM) | X (X = Ki ≤ 0.1 μM) | < 100 | Y (Y = 5 μg/mL < MPC@4 ≤ 20 μg/mL) | Y (Y = 5 μg/mL < MPC@4 ≤ 20 μg/mL) | Y (Y = 5 μg/mL < MPC@4 ≤ 20 μg/mL) | X (X = MPC@4 ≤ 5 μg/mL) | X (X = MPC@4 ≤ 5 μg/mL) | X (X = MPC@4 ≤ 5 μg/mL) | Y (Y = 5 μg/mL < MPC@4 ≤ 20 μg/mL) | Z (Z = MPC@4 > 20 μg/mL) | – | – | –
7 | N#CCOc1ccc2c(c1C(=O)O)OB(O)CC2 [Compound 47, 7-(Cyanomethoxy)-2-hydroxy-3,4-dihydro-1,2-benzoxaborinine-8-carboxylic acid] | X (X = MPC@1 ≤ 5 μg/mL) | X (X = MPC@1 ≤ 5 μg/mL) | X (X = MPC@1 ≤ 5 μg/mL) | X (X = MPC@1 ≤ 5 μg/mL) | < 100 | X (X = Ki ≤ 0.1 μM) | X (X = Ki ≤ 0.1 μM) | X (X = Ki ≤ 0.1 μM) | < 100 | X (X = MPC@4 ≤ 5 μg/mL) | X (X = MPC@4 ≤ 5 μg/mL) | X (X = MPC@4 ≤ 5 μg/mL) | X (X = MPC@4 ≤ 5 μg/mL) | X (X = MPC@4 ≤ 5 μg/mL) | X (X = MPC@4 ≤ 5 μg/mL) | X (X = MPC@4 ≤ 5 μg/mL) | X (X = MPC@4 ≤ 5 μg/mL) | – | – | –
8 | C[C@]1(Cn2ccnn2)[C@H](C(=O)O)N2C(=O)C[C@H]2S1(=O)=O [Tazobactam, reference compound] | Z (Z = MPC@1 > 20 μg/mL) | Y (Y = 5 μg/mL < MPC@1 ≤ 20 μg/mL) | – | – | – | – | – | – | – | Z (Z = MPC@4 > 20 μg/mL) | Y (Y = 5 μg/mL < MPC@4 ≤ 20 μg/mL) | X (X = MPC@4 ≤ 5 μg/mL) | Z (Z = MPC@4 > 20 μg/mL) | Y (Y = 5 μg/mL < MPC@4 ≤ 20 μg/mL) | X (X = MPC@4 ≤ 5 μg/mL) | Y (Y = 5 μg/mL < MPC@4 ≤ 20 μg/mL) | Y (Y = 5 μg/mL < MPC@4 ≤ 20 μg/mL) | – | – | Ki (OXA-48, NCF), uM [4]: Y (key: X = Ki ≤ 0.1 μM; Y = 0.1 μM < Ki ≤ 1 μM; Z = Ki > 1 μM); Ki (KPC-2, NCF), uM [5]: Z (key: X = Ki ≤ 0.1 μM; Y = 0.1 μM < Ki ≤ 1 μM; Z = Ki > 1 μM)
